One series relates to CMV-luc. Nature of the series: Secondary assays: CMV-luc in SC cells, Bright-Glo. Type of series: cell-based, human. Particulars: minimum CMV-luc signal in SC cells over 12 doses; summary data. Here is the method:
(§1) Compounds were plated at 2× concentrations in phenol red–free DMEM in 25 μl in 384-well plates with each compound dose plated in triplicate. An equal volume of S2, H2, or SC cells (24,000 cells/well) suspended in phenol red–free DMEM with 10% fetal bovine serum and 1× penicillin/streptomycin were added. Cells were grown 24 h and then assayed first by using the CellTiter-Fluor reagent (20 μl) followed by the addition of Bright-Glo (65 μl) luciferase assay, using a multimode plate reader (Beckman; DT880). Values were reported as the mean ± SD with n = 3. IC50s were determined by the Hill coefficient method using an online tool (https://www.aatbio.com/tools/ic50-calculator).

In a further series the test system is S2, H2 or SC cells. Nature of the series: Secondary assays: multiplexed cell viability (CellTiter-Fluor). As to the method:
(§2) The values for H2 and S2 were used as replicates to calculate IC50s and to assess cell viability.
as §1

Series [1] has as its system ATXN2-luc. Nature of the series: Secondary assays: ATXN2-luc in S2 and H2 cells, 12 doses, Bright-Glo. Type of series: cell-based, human. Particulars: summary data; for IC50: ATXN2-luc luciferase assays in H2 and S2 cells, 12 doses plus a zero dose, read-out: Mean IC50; for min ATXN2-luc (%): minimum ATXN2-luc signal over 12 doses, H2 and S2 cells. Here is the method:
as §2, §1

In series [2] the test system is ATXN2-luc. Nature of the series: MSSR hit retest / multiconcentration testing: ATXN2-luc luciferase assay in H2 cells (1 and 10 μM). It is filed as cell-based, human. Particulars: luciferase, average of H2 and S1 cells expressing ATXN2-luc, rescreen.
Series [3] deals with ATXN2-luc. Nature of the series: MSSR pilot screen: ATXN2-luc luciferase assay (Bright-Glo) in H2 cells, single 10 μM dose. Type of series: cell-based, human.
A further series deals with H2 and S1 cells. Nature of the series: Paired MTT viability assay, average of H2 and S1 cells (1 and 10 uM). Type of series: cell-based, human. The source says:
(§3) Supplement mmc2.xlsx, sheet "43 annotated compounds"

Series [4] has as its system ATXN2-luc. Nature of the series: MSSR hit retest: ATXN2-luc luciferase assay, average of H2 and S1 cells (1 and 10 uM). It is filed as cell-based, human. The settings on record: 1 uM compound; average of H2 and S1 cells.
Excerpt: as §3

Setting [5] is: minimum viability, multiplexed CellTiter-Fluor, over 12 doses, summary data.

For the compound `Cc1cnc(NC(=O)CN2CCN(c3ccccn3)CC2)s1` [MLS000035284-02], in the series with CMV-luc, the “min SC luc (%)” value is recorded as 4.094%. Further, the “min viability (%)” value in the series on S2, H2 or SC cells (setting [5]) was determined as 76.8459%. Besides, in the series with ATXN2-luc [1], the half-inhibitory concentration (IC50) stood at 12.9 µM and the “min ATXN2-luc (%)” value was determined as 38.5658%.
Take `Clc1ccc(C[n+]2cc(-c3ccccc3)n3c2CCCCC3)c(Cl)c1.[Br-]` [MLS000420216-02]: the “min SC luc (%)” value with CMV-luc stood at 72.1585%. Moreover, in the series on S2, H2 or SC cells (setting [5]), the “min viability (%)” value was 84.5162%. In the series with ATXN2-luc [1], the IC50 came to 8.08 µM and the “min ATXN2-luc (%)” value was 56.4685%.
Consider `S=C(NCCCN1CCOCC1)N1CCN(c2nc(-c3ccccc3)cs2)CC1` [MLS000706289-02], for which the “min SC luc (%)” value with CMV-luc came out at 79.3012%. In addition, in the series with S2, H2 or SC cells (setting [5]), the “min viability (%)” value was 89.1129%. In addition, in the series on ATXN2-luc [1], the 50% inhibitory concentration (IC50) was 6.85 µM and the “min ATXN2-luc (%)” value was 61.6491%.
Take `C[C@@H]1CCC/C=C\[C@H]2C[C@H](O)C[C@@H]2[C@H](O)/C=C\C(=O)O1` [NCGC00017254-02, (+)-Brefeldin A]: in the series on CMV-luc, the “min SC luc (%)” value was 84.381%. For the same compound, the “min viability (%)” value in the series with S2, H2 or SC cells (setting [5]) is reported as 72.9816%. Also, in the series with ATXN2-luc [1], the IC50 was determined as 2.89 µM and the “min ATXN2-luc (%)” value stood at 44.7226%.
As for `CCC(=C/[C@H](C)C/C=C/C(C)=C/[C@@H](C)C(=O)[C@@H](C)[C@H](O)[C@@H](C)C/C(C)=C/C(=O)O)/C=C/[C@@H]1OC(=O)C=C[C@@H]1C` [NCGC00162440-02], the “min SC luc (%)” value with CMV-luc turned out to be 90.0621%. Further, the “min viability (%)” value with S2, H2 or SC cells (setting [5]) was 65.4242%. In addition, in the series on ATXN2-luc [1], the IC50 was 0.048 µM and the “min ATXN2-luc (%)” value stood at 28.333%.
On to `Cc1ccc2nc(NCCN)c3ncc(C)n3c2c1` [NCGC00165761-02], for which the “min SC luc (%)” value in the series on CMV-luc amounted to 96.0167%. Further, the “min viability (%)” value in the series with S2, H2 or SC cells is reported as 77.5673%. For the same compound, in the series on ATXN2-luc [1], the IC50 came out at 4.05 µM and the “min ATXN2-luc (%)” value turned out to be 20.5589%.
Consider `CN(c1ncccc1CNc1nc(Nc2ccc3c(c2)CC(=O)N3)ncc1C(F)(F)F)S(C)(=O)=O` [NCGC00242495-01, PF-00562271], for which, in the series with CMV-luc, the “min SC luc (%)” value is listed as 98.3015%. Besides, the “min viability (%)” value with S2, H2 or SC cells (setting [5]) was found to be 64.5946%. For the same compound, in the series on ATXN2-luc [1], the IC50 was determined as 2.32 µM and the “min ATXN2-luc (%)” value was 15.5052%.
Take `COc1c(C)cnc(Cn2cnc3c(Cl)nc(N)nc32)c1C` [NCGC00247877-01]: in the series with CMV-luc, the “min SC luc (%)” value turned out to be 68.1668%. For the same compound, the “min viability (%)” value in the series with S2, H2 or SC cells came out at 91.8481%. Also, in the series on ATXN2-luc [1], the IC50 is 0.329 µM and the “min ATXN2-luc (%)” value came out at 17.8512%.
`CCNC(=O)c1noc(-c2cc(C(C)C)c(O)cc2O)c1-c1ccc(CN2CCOCC2)cc1` [NCGC00247878-01]: the “min SC luc (%)” value in the series on CMV-luc turned out to be 63.2542%. For the same compound, the “min viability (%)” value with S2, H2 or SC cells (setting [5]) amounted to 94.6315%. For the same compound, in the series with ATXN2-luc [1], the half-inhibitory concentration (IC50) was 0.044 µM and the “min ATXN2-luc (%)” value is recorded as 17.8831%.
Regarding `CCNC(=O)c1cc2c(-c3cc(OCCN4CCCC4)c(Cl)cc3Cl)nc(N)nc2s1` [NCGC00247879-01, NVP-BEP800], the “min SC luc (%)” value with CMV-luc amounted to 85.4541%. In the series on S2, H2 or SC cells, the “min viability (%)” value worked out at 89.936%. Further, in the series with ATXN2-luc [1], the IC50 is 1.79 µM and the “min ATXN2-luc (%)” value is 22.6428%.
Consider `Cc1cccc(Nc2nc(N[C@@H]3CCCC[C@H]3N)ncc2C(N)=O)c1` [NCGC00253909-01], for which, in the series on CMV-luc, the “min SC luc (%)” value is given as 86.8204%. For the same compound, in the series on S2, H2 or SC cells, the “min viability (%)” value was 94.6197%. For the same compound, in the series on ATXN2-luc [1], the half-maximal inhibitory concentration (IC50) amounted to 25.4 µM and the “min ATXN2-luc (%)” value is 64.2535%.
On to `Cc1ccc(-c2ncn(-c3ccc(Nc4nccc(-c5cccc(N6CCOCC6)c5)n4)cc3)n2)cn1` [NCGC00263146-01], for which the “min SC luc (%)” value in the series with CMV-luc is recorded as 82.9006%. Further, in the series with S2, H2 or SC cells, the “min viability (%)” value amounted to 65.3662%. Besides, in the series on ATXN2-luc [1], the IC50 came out at 1.3 µM and the “min ATXN2-luc (%)” value amounted to 15.6493%.
On to STROPH[…] LACTONE ACETATE, for which the “H2&S1 ave luc 1uM” value with ATXN2-luc [2] (1 uM compound) and in the series on ATXN2-luc [4] was 37 each time. In the series on ATXN2-luc [2] (10 uM compound), the “H2&S1 ave luc 10uM” value was determined as 20. In the series on ATXN2-luc [3] (H2 cells, single dose (title: 10 μM compound), overnight), the “SD from mean (ATXN2-luc, Z-score)” value is on record as -3.855 SD. The “SD from mean (pilot screen)” value is reported as -3.855 SD with ATXN2-luc [3] (pilot screen) and -3.855 in the series on ATXN2-luc [3] (pilot screen at 10 µM compound, H2 cells expressing ATXN2-luc). Moreover, in the series on ATXN2-luc [3] (pilot screen, absolute score divided by 1SD (0.891 or 0.9)), the “¦Score/1SD¦” value came out at 4.28. Moreover, the “H2&S1 ave MTT 1uM” value with H2 and S1 cells (1 uM compound) was determined as 43.5914. Besides, in the series on H2 and S1 cells (10 uM compound), the “H2&S1 ave MTT 10uM” value is listed as 36.6277.

In general, IC50 refers to the midpoint of a concentration-inhibition curve.

The values above are taken from publication PMC9356275, “A quantitative high-throughput screen identifies compounds that lower expression of the SCA2-and ALS-associated gene ATXN2” (The Journal of Biological Chemistry, 2022).
